From PubChem BioAssay AID720588 (Broad Institute, 2013)
Activity calls are given as the source filed them.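 How the source made its calls: active means fitted curve falls past a set limit of signal loss at no more than twice the top dose; inconclusive means flat fit between 30 and 70% signal loss, or poor fit; inactive means signal rise, flat within 30%, or crossing too high.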

Experiment: ATP-based viability loss in HEK293T cells – cell-based, CellTiter-Glo luminescence, cherry-pick, set 3, cytotoxicity control, dose response (AID 720588)
Conditions: HEK293T viability, CellTiter-Glo ATP luminescence, 72 h

Row | Compound | activity change, negative = cytotoxicity (at 26 µM (top of the series)) | further results
1 | Cc1ccc(-c2ccc3c(c2)O[C@@H](CN(C)C(=O)Nc2ccc(F)cc2)[C@H](C)CN([C@@H](C)CO)S3(=O)=O)cc1 | 48.8% (inactive) | –
2 | O=C(O)c1ccc(N/N=C/c2c[nH]c3ccccc23)cc1 | 6.31% (inactive) | –
3 | Cc1ccsc1C(=O)OCC(=O)NCCC1=CCCCC1 | -24.7% (inactive) | –
4 | N#CC1=C(N)Oc2cc(N)ccc2C1c1cccc(F)c1 (stereo unspecified) | -13.6% (inactive) | –
5 | O=C(O)c1cccc(N/N=C/c2cccs2)c1 | -19.1% (inactive) | –
6 | COc1ccccc1NC(=O)N1[C@@H]2CNC[C@H]1[C@@H]2c1ccc(-c2ccc(C#N)cc2)cc1 | – | activity change, negative = cytotoxicity (at 23.5 µM (top of the series)): -30.3% (inactive)
7 | COc1ccccc1/C=C1\SC(=S)N(CCC(=O)Nc2cc(C)on2)C1=O | 8.14% (inactive) | –
8 | N#C[C@@H]1[C@H](c2ccc(C#Cc3cccc(F)c3)cc2)[C@@H](CO)N1C(=O)C1CCCC1 | 38% (inactive) | –
9 | O=C1C(=O)N(CCS(=O)(=O)c2ccccc2)c2ccccc21 | 17.1% (inactive) | –
10 | CCOC(=O)C1CCCCN1C(=O)CCc1c(C)nc2cc(-c3ccccc3)nn2c1C (stereo unspecified) | -10.8% (inactive) | –
11 | Cc1csc(NC(=O)CCc2c(C)nc3cc(-c4ccc(Cl)cc4)nn3c2C)n1 | -13.4% (inactive) | –
12 | CCCCN=C(NNc1ccc(Br)cc1)C(=O)OCC | -39.4% (inactive) | –
13 | CCOc1ccc(C(c2c(NC(=O)c3ccccc3)sc(C)c2C)N2CCN(CCO)CC2)cc1 (stereo unspecified) | -15.2% (inactive) | –
14 | N/C(Cc1nc(-c2ccc(F)cc2)cs1)=N\O | -17.4% (inactive) | –
15 | C[C@@H]1CN([C@H](C)CO)C(=O)c2cc(NS(=O)(=O)c3ccc(Cl)cc3)ccc2O[C@@H]1CN(C)Cc1ccc(Cl)c(Cl)c1 | -9.51% (inactive) | –
16 | COC(=O)c1c(C)[nH]c(/C=N/Nc2ccccc2)c1C | -4.63% (inactive) | –
17 | Cc1ccccc1N=Nc1c(O)n(C)c2ccccc12 | 2.96% (inactive) | –
18 | COc1ccc(N=C(NN)c2ccc3ccccc3n2)cc1 | -17.4% (inactive) | –
19 | Nc1ccc2oc(-c3cc(Br)ccc3Cl)nc2c1 | 19.3% (inactive) | –

Row | Compound | activity change, negative = cytotoxicity (at 26 µM (top of the series)) | further results
20 | N#CC1=C(N)Oc2cc(N)ccc2C1c1cccc(Br)c1 (stereo unspecified) | -22.2% (inactive) | –
21 | O=C(Cc1nn[nH]n1)c1ccccc1O | 1.92% (inactive) | –
22 | Cc1ccc(S(=O)(=O)N(C)C[C@@H]2Oc3ccc(NC(=O)CCCCCC(=O)Nc4ccccc4N)cc3CC(=O)N([C@@H](C)CO)C[C@@H]2C)cc1 | – | activity change, negative = cytotoxicity (at 21 µM (top of the series)): 3.82% (inactive)
23 | COCCCNc1ccn2nc(-c3ccccc3)cc2n1 | -27.1% (inactive) | –
24 | Cc1ccc(OCCNC(=O)c2cccc(S(=O)(=O)NCc3ccccc3)c2)cc1 | 12.3% (inactive) | –
25 | C[C@H]1CN([C@@H](C)CO)C(=O)Cc2cc(NC(=O)C3CC3)ccc2O[C@H]1CN(C)S(=O)(=O)c1ccc(Cl)cc1 | -9.99% (inactive) | –
26 | O=C(NCc1ccccn1)c1ccc(CNS(=O)(=O)c2cccc(Cl)c2)cc1 | -15.8% (inactive) | –
27 | Cc1[nH]c(=S)sc1Cc1ccc(Cl)c(Cl)c1 | 20.1% (inactive) | –
28 | CN1C/C(=C/c2ccsc2)C(=O)/C(=C/c2ccsc2)C1 | -30% (inactive) | –
29 | CC(=O)Nc1ccc(OCC(=O)N(CC(C)C)C2CCS(=O)(=O)C2)cc1 (stereo unspecified) | 10.7% (inactive) | –
30 | COc1ccc(/C=C2\SC(=O)N(CCCC(=O)Nc3cc(Cl)ccc3C(=O)O)C2=O)cc1 | -2.58% (inactive) | –
31 | CCOc1ccc(-c2cc(CCCC(=O)N3CCN(c4ccc(OC)cc4)CC3)no2)cc1 | -8.72% (inactive) | –
32 | COC(=O)C(CC#Cc1ccc2c(c1)[C@]1(C(=O)N2)[C@H](c2ccc(OCCO)cc2)N2[C@H](c3ccccc3)[C@H](c3ccccc3)OC(=O)[C@H]2[C@@H]1C(=O)N1CCN(c2ncccn2)CC1)C(=O)OC | 1.09% (inactive) | –
33 | CCCCNC1=CC(=O)C(=O)c2ccccc21 | -32.1% (inactive) | –
34 | CCN(CC)c1ccc(C2NC(=O)c3ccccc3N2)cc1 (stereo unspecified) | -18.3% (inactive) | –
35 | COC(=O)C[C@@H]1CC[C@H]2[C@H](COc3ccc(NC(=O)Nc4cc(C)cc(C)c4)cc3C(=O)N2C)O1 | -2.27% (inactive) | –
36 | O=C(CN1C(=O)c2ccccc2S1(=O)=O)c1ccc(F)cc1 | 6.26% (inactive) | –
37 | Cc1cccc(N2CCN(C3C(=O)Nc4ccccc4-n4nnnc43)CC2)c1C (stereo unspecified) | -24.4% (inactive) | –
38 | COC(=O)[C@H]1[C@H](CO)[C@H]2Cn3c(ccc(-c4ccccc4F)c3=O)[C@@H]1N2CC1CCCC1 | 56.8% (inactive) | –

Row | Compound | activity change, negative = cytotoxicity (at 26 µM (top of the series)) | further results
39 | CCn1c(/C=N/NC(=O)c2ccc(OC)cc2)nc2ccccc21 | -10.9% (inactive) | –
40 | COc1ccc(NC(=O)N2CCCCN3[C@H](CO)[C@H](c4ccc(C#CCC(C)C)cc4)[C@H]3C2)cc1 | -56.2% (inactive) | –
41 | C[C@@H]1CN([C@H](C)CO)C(=O)Cc2cc(N(C)C)ccc2O[C@H]1CN(C)Cc1ccc(C(=O)Nc2ccccc2N)cc1 | -25.9% (inactive) | –
42 | CN1C(=O)c2cc(NC(=O)c3ccc(Cl)cc3)ccc2OC[C@@H]2O[C@@H](CC(=O)NCc3cccc(F)c3)CC[C@H]21 | -5.64% (inactive) | –
43 | CCCNC(=O)N1[C@H](C#N)[C@H](c2ccc(C#Cc3cccc(F)c3)cc2)[C@H]1CO | – | activity change, negative = cytotoxicity (at 23.5 µM (top of the series)): -0.501% (inactive)
44 | Cc1c(Cl)cccc1NC(=O)CCC(=O)N/N=C/c1ccc[nH]1 | 12% (inactive) | –
45 | Cc1occc1-c1n[nH]c(=S)n1C | -10.6% (inactive) | –
46 | COc1ccc(C2=Nn3c(nnc3-c3ccccc3F)SC2)cc1OC1CCOC1 (stereo unspecified) | -7.39% (inactive) | –
47 | Nc1ccc(Oc2ccccc2-c2ccccc2)cc1 | -8.94% (inactive) | –
48 | O=C1C(=O)N(CCS(=O)(=O)c2ccccc2)c2ccc(Cl)cc21 | -2.19% (inactive) | –
49 | COc1ccc(S(=O)(=O)N2CCCc3nc(-c4ccc(F)cc4)ccc32)cc1 | -5.94% (inactive) | –
50 | CCCN(C)C[C@H]1Oc2ncc(-c3ccccc3)cc2C(=O)N([C@@H](C)CO)C[C@H]1C | 2.32% (inactive) | –
51 | O=C(O)c1cccc(N/N=C/c2ccc(OC(F)(F)F)cc2)c1 | 11.3% (inactive) | –
52 | C[C@H](CO)N1C[C@H](C)[C@@H](CN(C)Cc2ccc(Oc3ccccc3)cc2)Oc2ccc(NS(=O)(=O)c3ccc(Cl)cc3)cc2CC1=O | -17.7% (inactive) | –
53 | COc1ccc(OC)c(-c2cc(C(F)(F)F)c3c(n2)sc2c(O)cc(=O)[nH]c23)c1 | 2.36% (inactive) | –
54 | COC(=O)Cc1[nH]n(-c2nc3ccccc3s2)c(=O)c1C(C)=Nc1ccc(C)cc1 | -30% (inactive) | –
55 | O=C(O)c1ccccc1C(=O)Nc1ccc(Oc2cccc3ccccc23)cc1 | -24.2% (inactive) | –
56 | COc1ccc(/C=C2\SC(=S)N(CCCC(=O)Nc3ccc(O)cc3)C2=O)cc1 | -27.6% (inactive) | –
